From patent US12054498B2, “Heteroaromatic macrocyclic ether chemotherapeutic agents” (Nuvalent, Inc., priority 2020, dated 2024)
Read-outs that look alike come from different tables or passages of the source.

Assays:
[1] = cc_pd bond, Pd(OAc)2/cataCXium A, KOAc, 2-methyl-2-butanol, 120.0 °C
[2] = from CCn1ccc(C(=O)c2nn(C)nc2-c2ccc(F)cc2[C@@H](C)Oc2cc(Br)cnc2N)c1; cc_pd bond; 12-membered ring; Pd(OAc)2/cataCXium A/KOAc; 2-methyl-2-butanol; 38.0 mM; 120.0 °C
[3] = from Cc1nn(CC2CC2)cc1Cc1nn(C)nc1-c1ccc(F)cc1C(CO[Si](C)(C)C(C)(C)C)Oc1cc(Br)cnc1N; cc_pd bond; 12-membered ring; Pd(OAc)2/cataCXium A/KOAc; 2-methyl-2-butanol; 30.0 mM; 120.0 °C
ROS1-positive NSCLC = ROS1-positive NSCLC patients; cited from earlier work
[4] = biological target: T1, Ba/F3 cells CD74-ROS1 G2032R (Homo sapiens, UniProt P08922, G2032R); assay: Ba/F3 cell proliferation assay, CD74-ROS1 G2032R; format: cell-based; details: 72 hours, CellTiter-Glo
T1 construct: fusion of the C-terminus of ROS1 with the N-terminus of various partner proteins; host or cells: Ba/F3 (RIKEN), retroviral pMSCV-puro; the other entry of the earlier key: CD74 (P04233, HLA class II histocompatibility antigen gamma chain)
Method in brief: (§1)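 First, retrovirally infected Ba/F3 cells were made IL-3-independent and selected with puromycin (0.8 μg/mL). Next, cells were plated and rested one day. Then compounds in 3-fold dilutions were added for 72 hours before CellTiter-Glo readout.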

[5] = biological target: T2, Ba/F3 cells EML4-ALK L1196M/G1202R (variant 1) (Homo sapiens, UniProt Q9UM73, G1202R/L1196M); assay: Ba/F3 cell proliferation assay, EML4-ALK L1196M/G1202R (variant 1); format: cell-based; details: 72 hours, CellTiter-Glo
T2 construct: echinoderm microtubule-associated protein-like 4 (EML4) gene and the ALK tyrosine kinase domain; host or cells: Ba/F3 (RIKEN), retroviral pMSCV-puro; the other entry of the earlier key: EML4 (Q9HC35, Echinoderm microtubule-associated protein-like 4)
Method in brief: (§2)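 IC50 values come from four-parameter logistic regression of CellTiter-Glo luminescence after 72 h exposure to 3-fold serial dilutions. Cells are Ba/F3 transformed by retroviral fusion-kinase constructs, grown without IL-3 under puromycin, plated at 1,000 per well a day before dosing.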

ALK L1196M/G1202R = biological target: T3, ALK L1196M/G1202R (Homo sapiens, UniProt Q9UM73, G1202R/L1196M); assay: Biochemical kinase assay, ALK L1196M/G1202R kinase domain; details: apparent inhibitory constant, Morrison equation; ATP 2 mM in substrate solution; read-out: ALK-L1196M-G1202R Ki^app
T3 construct: purchased SignalChem A19-12NG
Method in brief: (§3)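 Continuous fluorescence read (λ=485 nm, every 2 min, 120 min, 30° C). Substrate solution held 2 mM ATP and 26 μM AQT0101 (ROS1/ALK) or AQT0104 (TRKA). Kinase solution: ROS1-G2032R 0.5 nM, ROS1-wt 0.6 nM, TRKA 1 nM, ALK double mutant 3 nM. Initial linear rates fed a Morrison-equation fit giving Ki^app.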

[6] = biological target: T4, Ba/F3 cells EML4-ALK wt (variant 1) (Homo sapiens, UniProt Q9UM73); assay: Ba/F3 cell proliferation assay, EML4-ALK wt (variant 1); format: cell-based; details: 72 hours, CellTiter-Glo
T4 construct: echinoderm microtubule-associated protein-like 4 (EML4) gene and the ALK tyrosine kinase domain; host or cells: Ba/F3 (RIKEN), retroviral pMSCV-puro; the other entry of the earlier key: EML4 (Q9HC35, Echinoderm microtubule-associated protein-like 4)
Method in brief: as §2

[7] = biological target: T5, Ba/F3 cells CD74-ROS1 wild-type (wt) (Homo sapiens, UniProt P08922); assay: Ba/F3 cell proliferation assay, CD74-ROS1 wild-type; format: cell-based; details: 72 hours, CellTiter-Glo
T5 construct: fusion of the C-terminus of ROS1 with the N-terminus of various partner proteins; host or cells: Ba/F3 (RIKEN), retroviral pMSCV-puro; the other entry of the earlier key: CD74 (P04233, HLA class II histocompatibility antigen gamma chain)
Method in brief: as §1

ROS1-G2032R = biological target: T6, ROS1-G2032R (Homo sapiens, UniProt P08922, G2032R); assay: Biochemical kinase assay, ROS1-G2032R kinase domain; details: apparent inhibitory constant, Morrison equation; ATP 2 mM in substrate solution; read-out: ROS1-G2032R Ki^app
T6 construct: purchased SignalChem R14-12BG
Method in brief: (§4)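 Kinetic read: 485 nm, 2-min intervals, 120 min, 30 °C. Substrate mix — ATP 2 mM, AQT0101 26 μM, HEPES 50 mM pH 7.5, MgCl2 10 mM. Output: Ki^app, Morrison equation.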

ALK-wt = biological target: T7, ALK-wt (Homo sapiens, UniProt Q9UM73); assay: Biochemical kinase assay, ALK-wt kinase domain; details: apparent inhibitory constant, Morrison equation; ATP 2 mM in substrate solution; read-out: ALK-wt Ki^app
T7 construct: purchased Carna 08-518
Method in brief: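 Compound in DMSO added first, then substrate solution (ATP 2 mM; AQT0101 or AQT0104, 26 μM; pH 7.5 HEPES, 10 mM MgCl2), then kinase solution with enzyme at 0.5–3 nM depending on construct. Kinetic read every 2 min for 120 min at 30° C; Ki^app by Morrison regression.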

ROS1-wt = biological target: T8, ROS1-wt (Homo sapiens, UniProt P08922); assay: Biochemical kinase assay, ROS1-wt kinase domain; details: apparent inhibitory constant, Morrison equation; ATP 2 mM in substrate solution; read-out: ROS1-wt Ki^app
T8 construct: purchased Carna 08-163
Method in brief: as §4

Ba/F3 cells TPM3-TRKA = biological target: T9, Ba/F3 cells TPM3-TRKA (Homo sapiens, UniProt P04629); assay: Ba/F3 cell proliferation assay, TPM3-TRKA; format: cell-based; details: 72 hours, CellTiter-Glo, read-out: TPM3-NTRK1-wt IC50
T9 construct: host or cells: Ba/F3 (RIKEN), retroviral pMSCV-puro; the other entry of the earlier key: TPM3 (P06753, Tropomyosin alpha-3 chain)
Method in brief: as §2

[8] = test system: TPM3-NTRK1-wt IC50 / primary target IC50 (e.g. CD74-ROS1-wt); assay: TRKA selectivity in Ba/F3 cells (TRKA potency divided by primary target potency); format: cell-based; details: for TPM3-NTRK1-wt/CD74-ROS1-G2032R selectivity ratio: TRKA potency / CD74-ROS1-G2032R potency; for TPM3-NTRK1-wt/CD74-ROS1-wt selectivity ratio: TRKA potency / CD74-ROS1-wt potency; for TPM3-NTRK1-wt/EML4-ALK-L1196M-G1202R selectivity ratio: TRKA potency / EML4-ALK-L1196M-G1202R potency; for TPM3-NTRK1-wt/EML4-ALK-wt selectivity ratio: TRKA potency / EML4-ALK-wt potency
Method: TRKA selectivity was calculated by dividing a compound's TRKA potency by its primary target potency (e.g. TPM3-NTRK1-wt IC50/CD74-ROS1-wt IC50). Compound selectivity can be interpreted by binning ratio values: bin A for very high selectivity, ratio >30-fold; bin B for high selectivity, ratio >10-fold; bin C for moderate selectivity, ratio ≥1; and bin D for low selectivity, ratio <1. […] (nd=not determined).

TRKA-wt = biological target: T10, TRKA-wt (Homo sapiens, UniProt P04629); assay: Biochemical kinase assay, TRKA-wt kinase domain; details: apparent inhibitory constant, Morrison equation; ATP 2 mM in substrate solution; read-out: TRKA-wt Ki^app
T10 construct: or TRKA-wt (1 nM, BPS Bio, 40280) kinase domains in buffer; purchased BPS Bio 40280
Method in brief: as §3

T10 sequence (P04629 510-781 limits assumed): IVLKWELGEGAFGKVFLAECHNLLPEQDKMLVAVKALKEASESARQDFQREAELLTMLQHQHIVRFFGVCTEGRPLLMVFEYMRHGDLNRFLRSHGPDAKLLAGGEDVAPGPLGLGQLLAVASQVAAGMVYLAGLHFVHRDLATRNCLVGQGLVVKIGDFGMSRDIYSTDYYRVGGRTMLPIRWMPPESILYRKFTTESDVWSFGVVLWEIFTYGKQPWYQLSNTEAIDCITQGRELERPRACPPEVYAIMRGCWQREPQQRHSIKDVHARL
T6 sequence (P08922 1945-2222 G2032R limits assumed): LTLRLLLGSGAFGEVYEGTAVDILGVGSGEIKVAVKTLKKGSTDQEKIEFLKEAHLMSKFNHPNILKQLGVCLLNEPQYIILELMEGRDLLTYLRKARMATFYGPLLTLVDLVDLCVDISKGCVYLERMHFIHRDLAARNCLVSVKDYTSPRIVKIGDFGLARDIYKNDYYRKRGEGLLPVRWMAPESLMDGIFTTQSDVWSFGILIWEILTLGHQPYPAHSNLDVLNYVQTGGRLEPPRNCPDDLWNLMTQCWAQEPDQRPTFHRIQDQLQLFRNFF
T7 sequence (Q9UM73 1116-1392 limits assumed): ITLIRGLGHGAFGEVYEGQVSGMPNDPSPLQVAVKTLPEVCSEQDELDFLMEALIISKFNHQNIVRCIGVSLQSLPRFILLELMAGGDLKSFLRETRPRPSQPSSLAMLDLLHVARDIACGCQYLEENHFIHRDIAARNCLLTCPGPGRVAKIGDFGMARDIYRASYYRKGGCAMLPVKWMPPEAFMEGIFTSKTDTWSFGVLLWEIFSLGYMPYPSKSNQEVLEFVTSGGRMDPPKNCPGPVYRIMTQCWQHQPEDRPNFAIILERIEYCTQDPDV
T3 sequence (Q9UM73 1116-1392 L1196M/G1202R limits assumed): as the sequence (Q9UM73 1116-1392 limits assumed) above, with L81M, G87R counted along it
T8 sequence (P08922 1945-2222 limits assumed): as the sequence (P08922 1945-2222 G2032R limits assumed) above, with R88G counted along it
T5 sequence (P08922 1883-2347 limits assumed): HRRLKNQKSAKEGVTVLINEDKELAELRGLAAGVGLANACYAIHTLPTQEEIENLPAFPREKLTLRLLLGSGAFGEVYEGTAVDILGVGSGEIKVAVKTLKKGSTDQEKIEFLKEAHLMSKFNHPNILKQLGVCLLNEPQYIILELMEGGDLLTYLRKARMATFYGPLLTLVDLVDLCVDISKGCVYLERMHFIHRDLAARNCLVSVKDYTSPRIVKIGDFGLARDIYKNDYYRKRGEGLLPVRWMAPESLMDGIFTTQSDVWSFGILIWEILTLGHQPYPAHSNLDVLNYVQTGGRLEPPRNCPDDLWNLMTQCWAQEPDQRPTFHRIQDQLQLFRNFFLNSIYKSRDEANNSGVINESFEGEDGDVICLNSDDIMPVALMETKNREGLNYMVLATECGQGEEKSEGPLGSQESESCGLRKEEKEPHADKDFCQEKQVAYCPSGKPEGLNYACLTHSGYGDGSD
T4 sequence (Q9UM73 with tags, fused parts or gaps): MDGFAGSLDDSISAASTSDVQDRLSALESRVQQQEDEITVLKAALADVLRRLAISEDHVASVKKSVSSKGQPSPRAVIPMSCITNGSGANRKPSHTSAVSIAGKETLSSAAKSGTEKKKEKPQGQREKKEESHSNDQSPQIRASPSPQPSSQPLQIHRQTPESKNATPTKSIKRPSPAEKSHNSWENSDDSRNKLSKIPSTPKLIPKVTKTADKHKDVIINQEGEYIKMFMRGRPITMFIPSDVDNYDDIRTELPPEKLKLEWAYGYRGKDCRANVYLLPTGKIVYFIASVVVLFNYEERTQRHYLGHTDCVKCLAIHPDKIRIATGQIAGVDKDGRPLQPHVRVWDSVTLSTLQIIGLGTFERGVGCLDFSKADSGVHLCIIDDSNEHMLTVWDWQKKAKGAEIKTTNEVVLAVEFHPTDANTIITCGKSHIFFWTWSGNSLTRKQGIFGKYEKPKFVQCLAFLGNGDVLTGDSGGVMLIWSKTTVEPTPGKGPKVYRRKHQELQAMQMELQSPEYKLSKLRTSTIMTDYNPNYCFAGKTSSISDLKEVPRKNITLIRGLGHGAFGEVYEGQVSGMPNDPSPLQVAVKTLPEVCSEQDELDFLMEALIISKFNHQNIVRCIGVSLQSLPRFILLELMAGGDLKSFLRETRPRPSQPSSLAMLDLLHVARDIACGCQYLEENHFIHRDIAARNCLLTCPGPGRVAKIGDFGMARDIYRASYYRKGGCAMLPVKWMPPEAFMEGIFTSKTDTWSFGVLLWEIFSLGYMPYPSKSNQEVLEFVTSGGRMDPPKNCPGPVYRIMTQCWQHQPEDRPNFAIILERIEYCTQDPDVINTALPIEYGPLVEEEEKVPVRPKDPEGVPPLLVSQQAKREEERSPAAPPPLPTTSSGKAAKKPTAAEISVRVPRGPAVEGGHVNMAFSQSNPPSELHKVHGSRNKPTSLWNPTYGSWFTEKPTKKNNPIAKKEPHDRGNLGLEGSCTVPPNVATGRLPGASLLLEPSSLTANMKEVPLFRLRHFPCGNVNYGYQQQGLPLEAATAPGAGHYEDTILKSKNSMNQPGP
T9 sequence (P04629 510-796 limits assumed): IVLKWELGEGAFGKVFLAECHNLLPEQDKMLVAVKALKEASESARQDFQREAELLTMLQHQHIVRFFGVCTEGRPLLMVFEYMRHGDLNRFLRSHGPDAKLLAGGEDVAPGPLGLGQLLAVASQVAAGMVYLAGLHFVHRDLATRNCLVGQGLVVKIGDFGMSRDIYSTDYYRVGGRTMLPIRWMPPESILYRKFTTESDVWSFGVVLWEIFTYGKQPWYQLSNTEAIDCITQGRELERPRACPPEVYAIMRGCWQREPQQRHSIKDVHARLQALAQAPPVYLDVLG
T1 sequence (P08922 1883-2347 G2032R limits assumed): as the sequence (P08922 1883-2347 limits assumed) above, with G150R counted along it
T2 sequence (Q9UM73 with tags, fused parts or gaps L1196M/G1202R): as the sequence (Q9UM73 with tags, fused parts or gaps) above, with L635M, G641R counted along it

| SMILES | ring closure, yield of all isomers ([1]; from CCn1ccc(C(=O)c2nn(C)nc2-c2ccc(F)cc2[C@@H](C)Oc2cc(Br)cnc2N)c1, 38.0 mM, 12.0 h) [%] | ring closure, yield after HPLC [2] [%] | ring closure, yield of all isomers ([1]; from Cc1nn(CC2CC2)cc1Cc1nn(C)nc1-c1ccc(F)cc1C(CO[Si](C)(C)C(C)(C)C)Oc1cc(Br)cnc1N, 30.0 mM) [%] | ring closure, isolated yield [3] [%] | median progression-free survival (ROS1-positive NSCLC) | overall response rate (ROS1-positive NSCLC) | IC50 [4] [nM] | IC50 [5] [nM] | Ki (ALK L1196M/G1202R) [nM] | IC50 [6] [nM] | IC50 [7] [nM] | Ki (ROS1-G2032R) [nM] | Ki (ALK-wt) [nM] | Ki (ROS1-wt) [nM] | IC50 (Ba/F3 cells TPM3-TRKA) [nM] | TPM3-NTRK1-wt/CD74-ROS1-G2032R selectivity ratio [8] | TPM3-NTRK1-wt/CD74-ROS1-wt selectivity ratio [8] | TPM3-NTRK1-wt/EML4-ALK-L1196M-G1202R selectivity ratio [8] | TPM3-NTRK1-wt/EML4-ALK-wt selectivity ratio [8] | Ki (TRKA-wt) [nM] |
| --- | --- | --- | --- | --- | --- | --- | --- | --- | --- | --- | --- | --- | --- | --- | --- | --- | --- | --- | --- | --- |
| CCn1ccc2c1-c1cnc(N)c(c1)O[C@H](C)c1cc(F)ccc1-c1nn(C)nc1C2=O | 15 | 15 | – | – | – | – | – | – | – | – | – | – | – | – | – | – | – | – | – | – |
| Cc1nn(CC2CC2)c2c1Cc1nn(C)nc1-c1ccc(F)cc1C(CO[Si](C)(C)C(C)(C)C)Oc1cc-2cnc1N (stereo not drawn) | – | – | 23 | 23 | – | – | – | – | – | – | – | – | – | – | – | – | – | – | – | – |
| C[C@@H](Oc1cc(-c2cnn(C3CCNCC3)c2)cnc1N)c1c(Cl)ccc(F)c1Cl [Crizotinib, crizotinib] | – | – | – | – | 9-19 months | 60-80% | – | – | – | – | – | – | – | – | – | – | – | – | – | – |
| CCc1nn(C)c2c1-c1cnc(N)c(c1)O[C@H](C)c1cc(F)ccc1-c1nn(C)nc1C2 [Example 98, (19R)-3-ethyl-16-fluoro-5,10,19-trimethyl-20-oxa-4,5,9,10,11,23-hexaazapentacyclo[19.3.1.0^2,^6.0^8,^12.0^13,^18]pentacosa-1(24),2(6),3,8,11,13,15,17,21(25),22-decaen-22-amine] | – | – | – | – | – | – | 0.1 to 50 | 0.1 to 50 | < 50 | 0.1 to 50 | 0.1 to 50 | < 50 | < 50 | < 50 | 50 to 500 | A (bin A for very high selectivity, ratio >30-fold) | A (bin A for very high selectivity, ratio >30-fold) | C (bin C for moderate selectivity, ratio ≥1) | A (bin A for very high selectivity, ratio >30-fold) | 50 to 500 |
| C[C@H]1Oc2cc(cnc2N)-c2c(CC3CC3)nn(C)c2Cn2ncnc2-c2ccc(F)cc21 [Example 99, (19R)-3-(cyclopropylmethyl)-16-fluoro-5,19-dimethyl-20-oxa-4,5,8,9,11,23-hexaazapentacyclo[19.3.1.0^2,^6.0^8,^12.0^13,^18]pentacosa-1(24),2(6),3,9,11,13,15.17,21(25),22-decaen-22-amine] | – | – | – | – | – | – | 0.1 to 50 | 50 to 500 | < 50 | 0.1 to 50 | 0.1 to 50 | < 50 | < 50 | < 50 | > 500 | A (bin A for very high selectivity, ratio >30-fold) | A (bin A for very high selectivity, ratio >30-fold) | B (bin B for high selectivity, ratio >10-fold) | A (bin A for very high selectivity, ratio >30-fold) | > 500 |
| C[C@H]1Oc2cc(cnc2N)-c2c(CC3CC3)nn(C)c2Cc2nn(C)nc2-c2ccc(F)cc21 [Example 100, (19R)-3-(cyclopropylmethyl)-16-fluoro-5,10.19-trimethyl-20-oxa-4,5,9,10,11 23-hexaazapentacyclo[19.3.1.0^2,^6.0^8,^12.0^13,^18]pentacosa-1(24),2(6) 3,8,11,13,15,17,21(25),22-decaen-22-amine] | – | – | – | – | – | – | 0.1 to 50 | 0.1 to 50 | < 50 | 0.1 to 50 | 0.1 to 50 | < 50 | < 50 | < 50 | > 500 | A (bin A for very high selectivity, ratio >30-fold) | A (bin A for very high selectivity, ratio >30-fold) | A (bin A for very high selectivity, ratio >30-fold) | A (bin A for very high selectivity, ratio >30-fold) | > 500 |
